Assay results taken from paper PMC4551668 (Microbial Cell Factories, 2015).

Experiments:
MPH (Ochr-MPH) [1] = biological target: MPH (Ochr-MPH) (Ochrobactrum sp. M231, UniProt B2Z3X1); conditions: CHBD-MPH, tag excised by Kex2; substrate not named, taken from enzyme name and text; assay conditions only by reference
Source text: (§1) steady-state kinetics, purified enzyme, standard MPH assay on MPH (Ochr-MPH)

MPH (Ochr-MPH) [2] = biological target: MPH (Ochr-MPH) (Ochrobactrum sp. M231, UniProt B2Z3X1, K277D/K284Q/K285R); conditions: CHBD-DQR; same
Source text: as §1

MPH (Ochr-MPH) [3] = biological target: MPH (Ochr-MPH) (Ochrobactrum sp. M231, UniProt B2Z3X1, K284Q/K285R); conditions: CHBD-QR; same
Source text: as §1

Sequence of MPH (Ochr-MPH) (Ochrobactrum sp. M231, UniProt B2Z3X1) (B2Z3X1 entry or part of it): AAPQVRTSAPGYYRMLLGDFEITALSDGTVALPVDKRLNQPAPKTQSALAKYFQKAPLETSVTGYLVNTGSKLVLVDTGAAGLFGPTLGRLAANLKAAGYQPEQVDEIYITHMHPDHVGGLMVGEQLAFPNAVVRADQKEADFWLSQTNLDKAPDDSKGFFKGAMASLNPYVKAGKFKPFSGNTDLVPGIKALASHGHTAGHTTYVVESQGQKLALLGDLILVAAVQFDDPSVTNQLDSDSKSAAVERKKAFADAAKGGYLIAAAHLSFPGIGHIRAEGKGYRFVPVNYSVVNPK
Sequence of MPH (Ochr-MPH) (Ochrobactrum sp. M231, UniProt B2Z3X1, K277D/K284Q/K285R) (B2Z3X1 entry or part of it K277D/K284Q/K285R): as the sequence (B2Z3X1 entry or part of it) above, with K242D, K249Q, K250R counted along it
Sequence of MPH (Ochr-MPH) (Ochrobactrum sp. M231, UniProt B2Z3X1, K284Q/K285R) (B2Z3X1 entry or part of it K284Q/K285R): as the sequence (B2Z3X1 entry or part of it) above, with K249Q, K250R counted along it

SMILES: COP(=S)(OC)Oc1ccc([N+](=O)[O-])cc1 [methyl parathion]
- Km (MPH (Ochr-MPH) [1]): 86.9 ± 5.85 µM
- Km (MPH (Ochr-MPH) [2]): 168 ± 7.57 µM
- Km (MPH (Ochr-MPH) [3]): 119 ± 8.26 µM
